From patent publication EP0019589A1, “Tripeptide derivatives and their use in a process for determining enzymes” (Pentapharm A.G., priority 1979, dated 1980)
Non-standard residues stand in square brackets, D forms with d. Residues, ends and D or L forms follow the SMILES beside them. *: point of attachment. Cha = N[C@@H](CC1CCCCC1)C(=O)O; dCha = N[C@H](CC1CCCCC1)C(=O)O; dChg = N[C@@H](C(=O)O)C1CCCCC1; pNA = O=[N+]([O-])c1ccc(N*)cc1; Chg = N[C@H](C(=O)O)C1CCCCC1

What was measured:
Assay type in all cases: biochemical
[1] = molecular target: T1, Submandibularis-Kallikrein (Homo sapiens, UniProt P06870); assay: Cleavage of chromogenic substrate by submandibular (glandular) kallikrein in human sputum; conditions: 1 ml human sputum, per min; Substratkonzentration 2 x 10^-4 molar
T1 construct: Man mischt 0,5 ml Sputum mit 2 ml TRIS-Imidazol-Puffer; from tissue; host or cells: human sputum
T1 sequence (P06870 25-262): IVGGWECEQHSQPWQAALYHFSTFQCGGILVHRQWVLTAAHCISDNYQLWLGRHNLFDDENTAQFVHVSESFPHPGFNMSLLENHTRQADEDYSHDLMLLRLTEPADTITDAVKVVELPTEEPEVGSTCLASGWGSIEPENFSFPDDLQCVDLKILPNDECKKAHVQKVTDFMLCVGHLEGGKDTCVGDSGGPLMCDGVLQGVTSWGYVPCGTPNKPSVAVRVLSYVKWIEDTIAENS
Protocol: 2. Bestimmung des Glandulärkallikreins im Sputum: • Man mischt 0,5 ml Sputum mit 2 ml TRIS-Imidazol-Puffer (Ionenstärke 1,0) und präinkubiert die Mischung 5 Min. bei 37°C. Das Inkubat wird zentrifugiert. In eine Testküvette wird 1,5 ml dest. H2O von 37°C vorgelegt und mit 0,25 ml des Zentrifugats versetzt. Die Komponenten werden gut gemischt. Dann wird 0,2 ml 2 x 10-^3 molare wässrige Substratlösung zugesetzt und gemischt. Dann wird bei 405 nm die Extinktions- änderung kontinuierlich mittels eines Schreibers während 5-10 Min. verfolgt. Aus dem ermittelten Δ OD pro Min. wird mittels der nachstehenden Formel die Kallikreinaktivität pro ml Sputum in mU errechnet: [formula] • F = 5 • V = 1,95 • v = 0,25 • 1 U (Einheit) = Enzymmenge, die während 1 Min. 1 µMol Substrat unter optimalen oder sonst festgelegten Bedingungen in Bezug auf pH, Ionenstärke, Temperatur und Substratkonzentration zu spalten vermag
Bei der Messung des durch die enzymatische Hydrolyse des Substrates gebildeten Spaltproduktes RrNH2 geht man von der Voraussetzung aus, dass das Spaltprodukt ein UV-Spektrum besitzt, das von demjenigen des Substrates verschieden und in Richtung höherer Wellenlängen verschoben ist. Die Absorption des Substrates bei 405 nm ist praktisch Null. p-Nitroanilin als Spaltprodukt weist ein Absorptionsmaximum bei 380 nm und einen molaren Extinktionskoeffizienten von 13'200 auf. Bei 405 nm ist der Extinktionskoeffizient nur wenig niedriger, d.h. […] Der Grad der enzymatischen Hydrolyse des Substrates, welcher der Menge des abgespaltenen p-Nitroanilins proportional ist, lässt sich durch spektrophotometrische Messung bei 405 nm bestimmen. Auch bei Anwesenheit eines Ueberschusses an Substrat wird die Messung bei 405 nm nicht gestört. […]

Humanthrombin = molecular target: T2, Humanthrombin (Homo sapiens, UniProt P00734); assay: Cleavage of chromogenic substrate by human NIH thrombin; conditions: 1 NIH-Einheit human thrombin, per min; Substratkonzentration 2 x 10^-4 molar
T2 construct: Humanplasmin und hu-manem NIH-Thrombin
Source text: (§1) Bei der Messung des durch die enzymatische Hydrolyse des Substrates gebildeten Spaltproduktes RrNH2 geht man von der Voraussetzung aus, dass das Spaltprodukt ein UV-Spektrum besitzt, das von demjenigen des Substrates verschieden und in Richtung höherer Wellenlängen verschoben ist. Die Absorption des Substrates bei 405 nm ist praktisch Null. p-Nitroanilin als Spaltprodukt weist ein Absorptionsmaximum bei 380 nm und einen molaren Extinktionskoeffizienten von 13'200 auf. Bei 405 nm ist der Extinktionskoeffizient nur wenig niedriger, d.h. […] Der Grad der enzymatischen Hydrolyse des Substrates, welcher der Menge des abgespaltenen p-Nitroanilins proportional ist, lässt sich durch spektrophotometrische Messung bei 405 nm bestimmen. Auch bei Anwesenheit eines Ueberschusses an Substrat wird die Messung bei 405 nm nicht gestört.
(§2) Bei den Substraten, die als chromogene Gruppe eine 2-Naphthylamino-, 4-Methoxy-2-naphthylamino-, 4-Methyl-cumaryl-(7)-amino- oder 1,3-Di(methoxycarbonyl)-phenyl-(5)-amino-Gruppe enthalten, wird die Menge des Spaltproduktes R-NH2 durch Fluoreszenzspektrophotometrie gemessen. In einem aus Enzym, Puffer und Substrat bestehenden Testsystem misst man kontinuierlich das energieärmere emittierte Licht bei 400-470 nm, nachdem man das gebildete fluoreszierende Spaltprodukt mit energiereicherem Licht erregt hat. Die pro Zeiteinheit gebildete Menge Spaltprodukt ist ein Mass für die vorhandene Enzymaktivität. 1 µMol Spaltprodukt pro Minute entspricht definitionsgemäss 1 Enzym-Einheit, bezogen auf ein gegebenes Substrat.

Urinkallikrein = molecular target: T3, Urinkallikrein (Homo sapiens, UniProt P06870); assay: Cleavage of chromogenic substrate by urinary kallikrein in human urine; conditions: 1 ml human urine (pooled morning urine of healthy persons), per min; Substratkonzentration 2 x 10^-4 molar
T3 construct: 1 ml Urin und 1 ml TRIS-Imidazol-Puffer mit pH 7,9; from tissue; host or cells: human urine
T3 sequence (P06870 25-262): as above
Protocol: 1. Bestimmung von Urinkallikrein.
1 ml Urin und 1 ml TRIS-Imidazol-Puffer mit pH 7,9 und Ionenstärke 1,0 werden 5 Min. bei 37°C inkubiert undcänn zentrifugiert, um Sedimente zu entfernen.
In einer-Plastikküvette werden 1,4 ml dest. H20 von 37°C und 0,4 ml des Zentrifugats gut gemischt. Zu dieser Mischung gibt man 0,2 ml einer 2 x 10^-3 molaren wässrigen Substratlösung und durchmischt die Komponenten schnell. Dieses Gemisch wird genau 15 Min. bei 37°C inkubiert. Dann wird dem Reaktionsgemisch 0,2 ml Eisessig zugemischt, um die Enzymreaktion zu unterbrechen. Zur Farbmessung verwendet man eine Vergleichsprobe (Blindprobe), die aus den gleichen Komponenten zusammengesetzt ist, wobei jedoch der Eisessig vor Zugabe des Substrates zugesetzt wird, um die Enzymreaktion zu verhindern. Dann wird bei 405 nm photometrisch oder spektrophotometrisch die Menge der gebildeten farbigen Verbindung RNH 2 aus der Differenz zwischen der Blindprobe und der zu bestimmenden Probe ermittelt. Aus dem ermittelten Wert wird die Urinkallikreinaktivität im Urin nach der folgenden Formel berechnet: [formula] • Δ OD = Zunahme der optischen Dichte bei 405 nm während 15 Min. • V = Totalvolumen des Bestimmungsansatzes = 2,2 ml • 1000 = Umrechnungsfaktor zur Umwandlung von U in mU • F = Verdünnungsfaktor des Urins (2) • v = Volumen der Probe = 0,4 ml • ε = Extinktionskoeffizient dividiert durch 1000 = 10,4
Bei der oben beschriebenen Bestimmungsmethode misst man somit die Summe der Aktivitäten von Urinkallikrein und Urokinase. Um die genaue Urinkallikreinaktivität zu erhalten, muss man die Urokinaseaktivität abziehen, welche dadurch bestimmt werden kann, dass man in einem Vergleichsversuch durch Zugabe von 0,075 Einheiten Trypsininhibitor (Trypsininhibitor aus Rinderlunge) pro ml Puffer die Urinkallikreinaktivität vollständig hemmt und nur die Urokinaseaktivität misst.
as §1, §2

Humanplasmin = molecular target: T4, Humanplasmin (Homo sapiens, UniProt P00747); assay: Cleavage of chromogenic substrate by human plasmin; conditions: 1 CU-Einheit human plasmin, per min; Substratkonzentration 2 x 10^-4 molar
T4 construct: da bei der Aktivierung aus 1 Molekül Plasminogen 1 Molekül Plasmin entsteht
T4 sequence (P00747 581-810 limits assumed): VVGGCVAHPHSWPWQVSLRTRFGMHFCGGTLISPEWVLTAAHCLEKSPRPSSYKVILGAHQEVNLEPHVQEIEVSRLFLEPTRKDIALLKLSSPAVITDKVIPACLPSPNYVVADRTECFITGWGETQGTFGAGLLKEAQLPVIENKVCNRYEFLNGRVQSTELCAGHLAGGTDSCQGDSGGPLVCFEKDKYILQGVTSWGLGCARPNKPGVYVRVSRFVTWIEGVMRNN
T4 sequence (P00747 97-580 partner limits assumed): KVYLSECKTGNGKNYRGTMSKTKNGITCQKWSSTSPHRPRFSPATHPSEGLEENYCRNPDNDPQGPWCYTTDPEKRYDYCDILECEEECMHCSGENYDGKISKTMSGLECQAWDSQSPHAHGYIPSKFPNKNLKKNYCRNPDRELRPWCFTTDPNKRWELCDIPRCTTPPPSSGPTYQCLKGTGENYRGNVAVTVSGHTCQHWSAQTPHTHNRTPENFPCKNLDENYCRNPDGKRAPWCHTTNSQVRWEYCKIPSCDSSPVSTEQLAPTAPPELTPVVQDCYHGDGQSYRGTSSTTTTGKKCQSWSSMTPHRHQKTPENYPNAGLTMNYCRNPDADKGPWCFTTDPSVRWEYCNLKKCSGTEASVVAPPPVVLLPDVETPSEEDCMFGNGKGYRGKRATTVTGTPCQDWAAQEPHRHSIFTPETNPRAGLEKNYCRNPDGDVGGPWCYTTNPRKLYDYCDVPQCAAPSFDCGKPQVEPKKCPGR
Protocol: 3. Bestimmung von Plasmin:
Man mischt 1,7 ml TRIS-Imidazol-Puffer (pH 7,5, Ionenstärke 0,2) bei 37°C mit 0,1 ml einer Lösung von Plasmin in 25%igem Glycerin und inkubiert die Mischung während 1 Min. bei 37°C. Dann gibt man der Mischung 0,2 ml einer wässrigen 2 x 10^-3 molaren Substxatlösung von 37°C zu und durchmischt das Ganze schnell. Man ermittelt dann kontinuierlich die pro Zeiteinheit aus dem Substrat freigesetzte Menge des Spaltproduktes R-NH2. Aus dem pro Min. ermittelten Wert berechnet man dann die Plasminaktivität pro ml Probe in mU nach der folgenden Formel: [formula] • ΔE = pro Min. freigesetzte Menge des Spaltproduktes • V = Totalvolumen des Testansatzes • v = Volumen der Probe • = Extinktionskoeffizient dividiert durch 1000
as §1, §2

SMILES: N=C(N)NCCC[C@H](NC(=O)[C@@H](NC(=O)[C@H](N)Cc1ccccc1)C1CCCCC1)C(=O)Nc1ccc([N+](=O)[O-])cc1 [Beispiel 61, 2HBr.H-D-Phe-CHG-Arg-pNA] (H-[dF]-[Chg]-Arg-pNA)
- Menge des durch 1 ml Humansputum pro Min. freigesetzten Spaltproduktes R-NH2 in Nanomol (Submandibularis-Kallikrein) [1]: 4,9 Nanomol
- Menge des durch 1 NIH-Einheit Thrombin pro Min. freigesetzten Spaltproduktes R-NH2 in Nanomol (Humanthrombin) (Humanthrombin): 3,7 Nanomol
- Menge des durch 1 ml Humanurin pro Min. freigesetzten Spaltproduktes R-NH2 in Nanomol (Urinkallikrein) (Urinkallikrein): 0,33 Nanomol
- Menge des durch 1 CU-Einheit Humanplasmin pro Min. freigesetzten Spaltproduktes R-NH2 in Nanomol (Humanplasmin) (Humanplasmin): 60 Nanomol

SMILES: N=C(N)NCCC[C@H](NC(=O)[C@H](CC1CCCCC1)NC(=O)[C@H](N)Cc1ccccc1)C(=O)Nc1ccc([N+](=O)[O-])cc1 [Beispiel 39, 2HBr.H-D-Phe-CHA-Arg-pNA] (H-[dF]-[Cha]-Arg-pNA)
- Menge des durch 1 ml Humansputum pro Min. freigesetzten Spaltproduktes R-NH2 in Nanomol (Submandibularis-Kallikrein) [1]: 28,5 Nanomol
- Menge des durch 1 NIH-Einheit Thrombin pro Min. freigesetzten Spaltproduktes R-NH2 in Nanomol (Humanthrombin) (Humanthrombin): 3,9 Nanomol
- Menge des durch 1 ml Humanurin pro Min. freigesetzten Spaltproduktes R-NH2 in Nanomol (Urinkallikrein) (Urinkallikrein): 2,14 Nanomol
- Menge des durch 1 CU-Einheit Humanplasmin pro Min. freigesetzten Spaltproduktes R-NH2 in Nanomol (Humanplasmin) (Humanplasmin): 814 Nanomol

SMILES: N=C(N)NCCC[C@H](NC(=O)[C@H](Cc1ccc(O)cc1)NC(=O)[C@H](N)CC1CCCCC1)C(=O)Nc1ccc([N+](=O)[O-])cc1 [Beispiel 43, 2HBr.H-D-CHA-Tyr-Arg-pNA] (H-[dCha]-Tyr-Arg-pNA)
- Menge des durch 1 ml Humansputum pro Min. freigesetzten Spaltproduktes R-NH2 in Nanomol (Submandibularis-Kallikrein) [1]: 5,2 Nanomol
- Menge des durch 1 NIH-Einheit Thrombin pro Min. freigesetzten Spaltproduktes R-NH2 in Nanomol (Humanthrombin) (Humanthrombin): 8,3 Nanomol
- Menge des durch 1 ml Humanurin pro Min. freigesetzten Spaltproduktes R-NH2 in Nanomol (Urinkallikrein) (Urinkallikrein): 0,49 Nanomol
- Menge des durch 1 CU-Einheit Humanplasmin pro Min. freigesetzten Spaltproduktes R-NH2 in Nanomol (Humanplasmin) (Humanplasmin): 1407 Nanomol

SMILES: NCCCC[C@H](NC(=O)[C@@H]1CCCN1C(=O)[C@H](N)C1CCCCC1)C(=O)Nc1ccc([N+](=O)[O-])cc1 [Beispiel 31, 2AcOH.H-D-CHG-Pro-Lys-pNA] (H-[dChg]-Pro-Lys-pNA)
- Menge des durch 1 ml Humansputum pro Min. freigesetzten Spaltproduktes R-NH2 in Nanomol (Submandibularis-Kallikrein) [1]: 1,9 Nanomol
- Menge des durch 1 NIH-Einheit Thrombin pro Min. freigesetzten Spaltproduktes R-NH2 in Nanomol (Humanthrombin) (Humanthrombin): 3,78 Nanomol
- Menge des durch 1 ml Humanurin pro Min. freigesetzten Spaltproduktes R-NH2 in Nanomol (Urinkallikrein) (Urinkallikrein): 0 Nanomol
- Menge des durch 1 CU-Einheit Humanplasmin pro Min. freigesetzten Spaltproduktes R-NH2 in Nanomol (Humanplasmin) (Humanplasmin): 231 Nanomol

SMILES: CC[C@@H](C)[C@@H](N)C(=O)N[C@@H](CC1CCCCC1)C(=O)N[C@@H](CCCNC(=N)N)C(=O)Nc1ccc([N+](=O)[O-])cc1 [Beispiel 13, 2HBr.H-D-Ile-CHA-Arg-pNA] (H-[dI]-[Cha]-Arg-pNA)
- Menge des durch 1 ml Humansputum pro Min. freigesetzten Spaltproduktes R-NH2 in Nanomol (Submandibularis-Kallikrein) [1]: 36,6 Nanomol
- Menge des durch 1 NIH-Einheit Thrombin pro Min. freigesetzten Spaltproduktes R-NH2 in Nanomol (Humanthrombin) (Humanthrombin): 7,44 Nanomol
- Menge des durch 1 ml Humanurin pro Min. freigesetzten Spaltproduktes R-NH2 in Nanomol (Urinkallikrein) (Urinkallikrein): 2,67 Nanomol
- Menge des durch 1 CU-Einheit Humanplasmin pro Min. freigesetzten Spaltproduktes R-NH2 in Nanomol (Humanplasmin) (Humanplasmin): 446 Nanomol
